In ChEMBL document CHEMBL1152078, “An efficient preparation of the potent and selective pseudopeptide thrombin inhibitor, inogatran” (Bioorg Med Chem Lett, 1997):

Assays:
[1] = The compound was evaluated for bioavailability in rats; 32-51; format: ADME, organism-based; conditions: rat, in vivo; read-out: Bioavailabiility
[2] = The compound was evaluated for bioavailability in dogs; 34-44; format: ADME, organism-based, Canis lupus familiaris; conditions: dog, in vivo; read-out: Bioavailabiility

SMILES: Cl.Cl.N=C(N)NCCCNC(=O)[C@@H]1CCCCN1C(=O)[C@@H](CC1CCCCC1)NCC(=O)O
- bioavailability [1]: 51%
- bioavailability [2]: 44%
